Consider ten molecules from patent US5658938A, “Substituted 1H-imidazoles” (U C B S.A., priority 1994, dated 1997).

Series [1] has as its system presynaptic α2 -adrenergic receptors. Description: Inhibition of the contraction of the electrically stimulated guinea pig ileum (presynaptic α2-agonist activity). The following applies: guinea pig ileum longitudinal muscle strips, electrical stimulation. The source says:
Longitudinal muscle strips attached to an isometric strain gauge are suspended in Tyrode's solution and are stretched under a tension of 1 g (G. M. Drew, Brit. J. Pharmacol. 64, (1978), 293-300; M. Andrejak et al., Naunyn-Schmiedeberg's Arch. Pharmacol. 314, (1980), 83-87).
Electrical stimulation of the parasympathetic nerves associated with the ileum fragments causes a contraction of the muscle. This contraction is reduced in the presence of a presynaptic α2 -agonist and the magnitude by which the contraction is reduced depends on the concentration of the agonist used. This effect is antagonised by the simultaneous presence of an α2 -antagonist such as alpha-yohimbine.
The IC30 concentration (in mole/l) that reduces by 30% the intensity of the contraction of the muscle is determined.

Series [2] has as its system coronary occlusion in the rat. Description: Anti-ischemic and anti-hypertensive activity: coronary occlusion in the anesthetized rat (elevation of the T wave of the electrocardiogram, arterial pressure). The series is classed as in vivo, male albino rat of the Sprague-Dawley strain. As to conditions: for change in vivo at 3 µmol/kg / change in vivo at 1 µmol/kg: Rattus norvegicus, iv. The source says:
The cardiac anti-ischemic activity of compounds manifests itself by their capacity to oppose the elevation of the T wave of the electrocardiogram, induced by a coronary occlusion in the rat. Continuous monitoring of the arterial pressure also enables to reveal the anti-hypertensive effects. The animal used for the test is a male albino rat of the Sprague-Dawley strain, weighing 220 to 280 g. On the day of the experiment, the animal is anesthetized by intraperitoneal administration of pentobarbital (60 mg/kg), then placed under endotracheal intubation. A ligature system is fitted around the descending left anterior coronary artery according to the procedure of Johnston et el. (Can. J. Physiol. Pharmacol., 61 (1983), 1340-1353). After closing the thorax, three electrodes are arranged on the body of the animal ("V4" thoracic derivation), in order to continuously record the shape of the electrocardiogram signal (in particular the T wave). Catheters are introduced into the right carotid artery and the right jugular vein to measure the arterial pressure and to administer intravenously the compound tested or the vehicle solution. Four 45 second coronary occlusions are performed, separated by episodes of reperfusion of 30, 35 and 30 minutes respectively. The compound to be studied or the vehicle are administered intravenously in bolus, 30 minutes before occlusion 3. The T electrocardiographic signal and the arterial pressure are continuously measured during the entire experiment.
The effects of the compounds according to the invention are quantified by comparing the amplitude of the elevation of the T wave at occlusions 3 and 4 (that is 30 minutes and 60 minutes after administration) with its value at occlusion 2 (that is before administration).
the second column indicates the dose of compound administered, expressed in mole/kg;
the third and the fourth columns indicate the anti-ischemic effect caused by administering the compound tested. The anti-ischemic effect represents the reduction in the elevation of the T wave caused by coronary occlusions 3 and 4, expressed in % with respect to occlusion 2, before administration of the compound (ΔT3 and ΔT4 respectively);
the fifth and sixth columns indicate the anti-hypertensive effect caused by administration of the compound tested. The anti-hypertensive effect is expressed as the maximum lowering of arterial pressure, measured a) between 5 and 30 minutes, and b) between 30 and 60 minutes after intravenous injection of the compound tested (ΔPa and ΔPb respectively). This lowering is expressed in % with respect to the value measured before injection.

For series [3], the target named is T1, postsynaptic α1 -adrenergic receptor (Rattus norvegicus, UniProt P23944).
T1 construct: isolated aorta of the rat; from tissue; host or cells: rat isolated aorta
T1 sequence (P23944 1-561): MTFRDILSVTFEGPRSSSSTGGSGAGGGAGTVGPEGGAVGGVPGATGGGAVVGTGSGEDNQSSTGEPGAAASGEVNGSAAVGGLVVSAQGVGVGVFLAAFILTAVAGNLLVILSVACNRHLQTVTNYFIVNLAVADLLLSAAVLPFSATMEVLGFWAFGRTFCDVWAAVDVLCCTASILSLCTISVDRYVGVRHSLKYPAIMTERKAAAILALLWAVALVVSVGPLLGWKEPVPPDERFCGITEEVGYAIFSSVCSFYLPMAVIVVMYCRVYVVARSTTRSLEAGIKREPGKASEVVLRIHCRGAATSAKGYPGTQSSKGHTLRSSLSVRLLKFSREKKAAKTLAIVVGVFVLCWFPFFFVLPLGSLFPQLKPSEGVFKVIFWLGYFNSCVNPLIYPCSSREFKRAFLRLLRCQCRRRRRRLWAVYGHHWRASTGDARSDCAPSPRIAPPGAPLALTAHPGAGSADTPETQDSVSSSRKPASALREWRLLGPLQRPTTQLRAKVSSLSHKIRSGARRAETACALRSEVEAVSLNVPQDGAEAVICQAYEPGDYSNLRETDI
Description: Postsynaptic α1-antagonist activity: inhibition of norepinephrine-induced contraction of the isolated aorta of the rat. As to conditions: read-out: ED30 (concentration which causes 30% inhibition of the contraction induced by norepinephrine). As to the method: A non selective α-agonist substance such as norepinephrine induces a sustained contraction of the isolated aorta of the rat (J. M. Van Rossum Arch. Int. Pharmacodyn. 143, (1963), 299-330). This contraction can be inhibited by α1 -adrenergic blocking substances such as prazosin. In this test, a control contraction is carried out with norepinephrine at 3.2×10^-8 mole/l. After washing and stabilizing the preparation, the compound to be tested is added to the bath. Norepinephrine is added 5 minutes after the compound tested, and inhibition of the contraction induced by norepinephrine is measured. Next, inhibition of the contraction induced by norepinephrine is evaluated a second and third time in the presence of increasing concentrations of the compound tested.

The test system of another series is male NMRI mice. Description: Toxicity, Irwin's test. As to conditions: intraperitoneal. The series is classed as in vivo. The method, then: The toxicity of the compounds of the invention has been determined in male NMRI mice by means of Irwin's test (S. Irwin, Psychopharmacologia (Berl.), 13, (1968), 222-257).
Progressive doses of the product studied are administered intraperitoneally to groups of three mice until a lethal dose is reached (dose causing the death of two out of three animals in 48 hours). It follows from this Table that the compounds of the invention are not very toxic.

[4] abbreviates: 0.5 h, read-out: ΔPa (maximum lowering of arterial pressure).
The mark [5] stands for this setting: 0.5 h, read-out: ΔT3 (anti-ischemic effect: change in elevation of the T wave, occlusion 3 vs occlusion 2).
The mark [6] stands for this setting: 1 h, read-out: ΔPb (maximum lowering of arterial pressure).
Setting [7] is: 1 h, read-out: ΔT4 (anti-ischemic effect: change in elevation of the T wave, occlusion 4 vs occlusion 2).

Where a name gives a salt, the structure may show the parent alone. Read-outs that look alike come from different tables or passages of the source.

For `COc1ccc2c(c1)CCCC2c1c[nH]cn1` (single isomer, unassigned; (+)) [Compound A, (+)-4-(1,2,3,4-tetrahydro-6-methoxy-1-naphthalenyl)-1H-imidazole], the “IC30 (concentration that reduces by 30% the intensity of the contraction of the muscle)” value in series [1] was 30 nM. Moreover, the change in vivo at 3 µmol/kg was -32% in series [2] (setting [4]), -80% in series [2] (setting [5]), -28% in series [2] (setting [6]) and -33% in series [2] (setting [7]). In addition, in series [3], the IC30 was found to be 21 nM. For the same molecule, the “Lethal dose (dose causing the death of two out of three animals in 48 hours)” value (“Lethal dose” below) in the series with male NMRI mice came to 228.3 mg/kg.

As for `Oc1ccc2c(c1)CCCC2c1c[nH]cn1` (single isomer, unassigned; (+)) [Compound D, (+)-5,6,7,8-tetrahydro-5-(1H-imidazol-4-yl)-2-naphthalenol], the “IC30 (concentration that reduces by 30% the intensity of the contraction of the muscle)” value in series [1] is 1.8 nM. In addition, the change in vivo at 1 µmol/kg in series [2] (setting [4]) is -30%; in series [2] (setting [5]), -50%; in series [2] (setting [6]) it was -17%; in series [2] (setting [7]), -31%. Moreover, in series [3], the IC30 stood at 420 nM. Further, the “Lethal dose” value with male NMRI mice is given as greater than 68.6 mg/kg.

Consider `Cc1cccc2c1CCCC2c1c[nH]cn1` (stereo not shown) [Compound B, 4-(1,2,3,4-tetrahydro-5-methyl-1-naphthalenyl)-1H-imidazole], for which the “IC30 (concentration that reduces by 30% the intensity of the contraction of the muscle)” value in series [1] was 0.88 nM. Besides, the change in vivo at 3 µmol/kg was -33% in series [2] (setting [4]), -48% in series [2] (setting [5]), -16% in series [2] (setting [6]) and -29% in series [2] (setting [7]). Moreover, the IC30 in series [3] amounted to 33 nM. For the same molecule, in the series on male NMRI mice, the “Lethal dose” value is greater than 67.9 mg/kg.

Regarding `COc1ccc2c(c1)CCC2c1c[nH]cn1` (stereo not shown) [Compound C, 4-(2,3-dihydro-5-methoxy-1H-inden-1-yl)-1H-imidazole], the “IC30 (concentration that reduces by 30% the intensity of the contraction of the muscle)” value in series [1] turned out to be 32 nM. The change in vivo at 3 µmol/kg in series [2] (setting [4]) is -44%; in series [2] (setting [5]) it was -52%; in series [2] (setting [6]) it was -43%; in series [2] (setting [7]), -66%. Further, the IC30 in series [3] came out at 100 nM. Further, the “Lethal dose” value in the series on male NMRI mice worked out at 214.3 mg/kg.

`COc1cccc2c1CCCC2c1c[nH]cn1` (stereo not shown) [Compound E, 4-(1,2,3,4-tetrahydro-5-methoxy-1-naphthalenyl)-1H-imidazole]: the “IC30 (concentration that reduces by 30% the intensity of the contraction of the muscle)” value in series [1] is 1.7 nM. Further, the change in vivo at 1 µmol/kg in series [2] (setting [4]) is -45%; in series [2] (setting [5]) it was -31%; in series [2] (setting [6]), -20%; in series [2] (setting [7]) it was -13%. Further, the IC30 in series [3] stood at 460 nM. In the series on male NMRI mice, the “Lethal dose” value was determined as 127.8 mg/kg.

Regarding `Cl.Oc1cc2c(cc1O)C(c1c[nH]cn1)CCC2` (stereo not shown) [Compound K, 5,6,7,8-tetrahydro-5-(1H-imidazol-4-yl)-2,3-naphthalenediol hydrochloride], in series [1], the “IC30 (concentration that reduces by 30% the intensity of the contraction of the muscle)” value stood at 16 nM. Moreover, the change in vivo at 3 µmol/kg in series [2] (setting [4]) was -29%; in series [2] (setting [5]), -49%; in series [2] (setting [6]), -41%; in series [2] (setting [7]), -47%. The “Lethal dose” value in the series with male NMRI mice is greater than 85.4 mg/kg.

Regarding `NC(=O)c1cccc(Cc2c[nH]cn2)c1O` [Mivazerol, 2-hydroxy-3-[(1H-imidazol-4-yl)methyl]benzamide hydrochloride, reference compound], the change in vivo at 3 µmol/kg is -1% in series [2] (setting [4]), -34% in series [2] (setting [5]), -6% in series [2] (setting [6]) and -22% in series [2] (setting [7]).

Consider `Cc1cc(C(C)(C)C)c(O)c(C)c1CC1=NCCN1` [Oxymetazoline, 3-[(4,5-dihydro-1H-imidazol-2-yl)methyl]-6-(1,1-dimethylethyl)-2,4-dimethylphenol, reference compound], for which the “IC30 (concentration that reduces by 30% the intensity of the contraction of the muscle)” value in series [1] stood at 12 nM. In addition, the change in vivo at 3 µmol/kg in series [2] (0.5 h, i.v. bolus, 3.2 × 10^-8 mole/kg, 30 minutes after administration, read-out: ΔT3 (anti-ischemic effect: change in elevation of the T wave, occlusion 3 vs occlusion 2)) was -45%; in series [2] (1 h, i.v. bolus, 3.2 × 10^-8 mole/kg, 60 minutes after administration, read-out: ΔT4 (anti-ischemic effect: change in elevation of the T wave, occlusion 4 vs occlusion 2)), -38%; in series [2] (1 h, i.v. bolus, 3.2 × 10^-8 mole/kg, between 30 and 60 minutes after injection, read-out: ΔPb (maximum lowering of arterial pressure)), 0%.

On to `COc1cc2nc(N3CCN(C(=O)c4ccco4)CC3)nc(N)c2cc1OC` [Prazosin, 1-(4-amino-6,7-dimethoxy-2-quinazolinyl)-4-(2-furanylcarbonyl)piperazine, reference compound], for which the “anti-ischemic effect, in words” value in series [2] (i.v., Table I) is given as “absence of a significant anti-ischemic effect”. Moreover, the IC30 in series [3] is 0.23 nM.

`CC(C)NCC(O)COc1cccc2ccccc12` (stereo not shown) [Propranolol, 1-[(1-methylethyl)amino]-3-(1-naphthalenyloxy)-2-propanol, reference compound]: the change in vivo at 3 µmol/kg in series [2] (0.5 h, i.v. bolus, 3.2 × 10^-6 mole/kg, 30 minutes after administration, read-out: ΔT3 (anti-ischemic effect: change in elevation of the T wave, occlusion 3 vs occlusion 2)) was -21%; in series [2] (0.5 h, i.v. bolus, 3.2 × 10^-6 mole/kg, between 5 and 30 minutes after injection, read-out: ΔPa (maximum lowering of arterial pressure)) it was 7%; in series [2] (1 h, i.v. bolus, 3.2 × 10^-6 mole/kg, 60 minutes after administration, read-out: ΔT4 (anti-ischemic effect: change in elevation of the T wave, occlusion 4 vs occlusion 2)), -30%; in series [2] (1 h, i.v. bolus, 3.2 × 10^-6 mole/kg, between 30 and 60 minutes after injection, read-out: ΔPb (maximum lowering of arterial pressure)), 5%.
